Data reported in patent US7368578B2, “Five-membered heterocyclic compounds” (Takeda Pharmaceutical Company Limited, priority 2002, dated 2008).

| melting point [°C] | SMILES |
| --- | --- |
| 180 to 181 | COc1cc(COc2nn(-c3ccccc3)cc2C=O)ccc1OCc1nc(N2CCCCC2)sc1C [Example 198, 3-({3-methoxy-4-[(5-methyl-2-piperidin-1-yl-1,3-thiazol-4-yl)methoxy]benzyl}oxy)-1-phenyl-1H-pyrazole-4-carbaldehyde] |
| 131 to 132 | CCOC(=O)c1cn(Cc2cccnc2)nc1OCc1ccc(OCc2nc(-c3ccco3)oc2C)c(OC)c1 [Example 199, ethyl 3-[(4-{[2-(2-furyl)-5-methyl-1,3-oxazol-4-yl]methoxy}-3-methoxybenzyl)oxy]-1-(pyridin-3-ylmethyl)-1H-pyrazole-4-carboxylate] |
| 90 to 91 | COc1cc(COc2nn(Cc3cccnc3)cc2CO)ccc1OCc1nc(-c2ccco2)oc1C [Example 200, [3-[(4-{[2-(2-furyl)-5-methyl-1,3-oxazol-4-yl]methoxy}-3-methoxybenzyl)oxy]-1-(pyridin-3-ylmethyl)-1H-pyrazol-4-yl]methanol] |
| 134 to 135 | COC(=O)c1ccccc1-c1nc(COc2ccc(COc3nn(-c4ccccc4)cc3C=O)cc2OC)c(C)o1 [Example 207, methyl 2-{4-[(4-{[(4-formyl-1-phenyl-1H-pyrazol-3-yl)oxy]methyl}-2-methoxyphenoxy)methyl]-5-methyl-1,3-oxazol-2-yl}benzoate] |
| 164 to 165 | COC(=O)c1cccc(-c2nc(COc3ccc(CON4CC(C=O)=CN4c4ccccc4)cc3OC)c(C)o2)c1 [Example 208, methyl 3-{4-[(4-{[(4-formyl-1-phenyl-1H-pyrazol-2-yl)oxy]methyl}-2-methoxyphenoxy)methyl]-5-methyl-1,3-oxazol-2-yl}benzoate] |
| 190 to 191 | COC(=O)c1ccc(-c2nc(COc3ccc(COc4nn(-c5ccccc5)cc4C=O)cc3OC)c(C)o2)cc1 [Example 209, methyl 4-{4-[(4-{[(4-formyl-1-phenyl-1H-pyrazol-3-yl)oxy]methyl}-2-methoxyphenoxy)methyl]-5-methyl-1,3-oxazol-2-yl}benzoate] |
| 164 to 165 | COc1cc(COc2nn(-c3ccccc3)cc2C=O)ccc1OCc1nc(-c2ccccc2)sc1C [Example 213, 3-({3-methoxy-4-[(5-methyl-2-phenyl-1,3-thiazol-4-yl)methoxy]benzyl}oxy)-1-phenyl-1H-pyrazole-4-carbaldehyde] |
| 162 to 163 | COc1cc(COc2nn(-c3ccccc3)cc2C=O)ccc1OCc1coc(-c2ccco2)n1 [Example 218, 3-[(4-{[2-(2-furyl)-1,3-oxazol-4-yl]methoxy}-3-methoxybenzyl)oxy]-1-phenyl-1H-pyrazole-4-carbaldehyde] |
| 171 to 172 | COc1cc(COc2nn(-c3ccccc3)cc2C=O)ccc1OCc1sc(-c2ccccc2)nc1C [Example 219, 3-({3-methoxy-4-[(4-methyl-2-phenyl-1,3-thiazol-5-yl)methoxy]benzyl}oxy)-1-phenyl-1H-pyrazole-4-carbaldehyde] |
| 179 to 180 | COc1cc(COc2nn(-c3ccccc3)cc2C=O)ccc1OCc1cn(-c2ccccn2)nc1C [Example 220, 3-({3-methoxy-4-[(3-methyl-1-pyridin-2-yl-1H-pyrazol-4-yl)methoxy]benzyl}oxy)-1-phenyl-1H-pyrazole-4-carbaldehyde] |
| 126 to 127 | COc1cc(COc2nn(-c3ccccc3)cc2C=O)ccc1OCc1nc(-c2ccccc2)cn1C [Example 221, 3-({3-methoxy-4-[(1-methyl-4-phenyl-1H-imidazol-2-yl)methoxy]benzyl}oxy)-1-phenyl-1H-pyrazole-4-carbaldehyde] |
| 132 to 133 | CCc1nc(/C=C/c2cn(-c3ccccc3)nc2OCc2ccc(OCc3nc(-c4cccc(C(=O)OC)c4)oc3C)c(OC)c2)cs1 [Example 225 (E form), methyl 3-[4-({4-[({4-[(E)-2-(2-ethyl-1,3-thiazol-4-yl)ethenyl]-1-phenyl-1H-pyrazol-3-yl}oxy)methyl]-2-methoxyphenoxy}methyl)-5-methyl-1,3-oxazol-2-yl]benzoate] |
| 125 to 126 | CCc1nc(/C=C\c2cn(-c3ccccc3)nc2OCc2ccc(OCc3nc(-c4cccc(C(=O)OC)c4)oc3C)c(OC)c2)cs1 [Example 225 (Z form), methyl 3-[4-({4-[({4-[(Z)-2-(2-ethyl-1,3-thiazol-4-yl)ethenyl]-1-phenyl-1H-pyrazol-3-yl}oxy)methyl]-2-methoxyphenoxy}methyl)-5-methyl-1,3-oxazol-2-yl]benzoate] |
| 161 to 162 | COc1cc(COc2nn(-c3ccccc3)cc2C=O)ccc1OCc1nc(-c2cccnc2)oc1C [Example 227, 3-({3-methoxy-4-[(5-methyl-2-pyridin-3-yl-1,3-oxazol-4-yl)methoxy]benzyl}oxy)-1-phenyl-1H-pyrazole-4-carbaldehyde] |
| 76 to 78 | CCc1nc(/C=C/c2cn(-c3ccccc3)nc2OCc2ccc(OCc3nc(N4CCOCC4)sc3C)c(OC)c2)cs1 [Example 232 (E form), 4-[4-({4-[({4-[(E)-2-(2-ethyl-1,3-thiazol-4-yl)ethenyl]-1-phenyl-1H-pyrazol-3-yl}oxy)methyl]-2-methoxyphenoxy}methyl)-5-methyl-1,3-thiazol-2-yl]morpholine] |
| 112 to 114 | CCc1nc(/C=C\c2cn(-c3ccccc3)nc2OCc2ccc(OCc3nc(N4CCOCC4)sc3C)c(OC)c2)cs1 [Example 232 (Z form), 4-[4-({4-[({4-[(Z)-2-(2-ethyl-1,3-thiazol-4-yl)ethenyl]-1-phenyl-1H-pyrazol-3-yl}oxy)methyl]-2-methoxyphenoxy}methyl)-5-methyl-1,3-thiazol-2-yl]morpholine] |
| 185 to 186 | Cc1oc(-c2ccccc2)nc1COc1ccc(C(=O)Nc2nn(-c3ccccc3)cc2C=O)cc1 [Example 233, N-(4-formyl-1-phenyl-1H-pyrazol-3-yl)-4-[(5-methyl-2-phenyl-1,3-oxazol-4-yl)methoxy]benzamide] |
| 193 to 194 | COc1cc(COc2nn(-c3ccccc3)cc2C=O)ccc1OCc1nc(-c2cccc(O)c2)oc1C [Example 234, 3-[(4-{[2-(3-hydroxyphenyl)-5-methyl-1,3-oxazol-4-yl]methoxy}-3-methoxybenzyl)oxy]-1-phenyl-1H-pyrazole-4-carbaldehyde] |
| 107 to 109 | COC(=O)COc1cccc(-c2nc(COc3ccc(COc4nn(-c5ccccc5)cc4C=O)cc3OC)c(C)o2)c1 [Example 235, methyl (3-{4-[(4-{[(4-formyl-1-phenyl-1H-pyrazol-3-yl)oxy]methyl}-2-methoxyphenoxy)methyl]-5-methyl-1,3-oxazol-2-yl}phenoxy)acetate] |
| 161 to 162 | COC(=O)c1cccc(-c2nc(COc3ccc(COc4nn(-c5ccccc5)cc4C=O)cc3)c(C)o2)c1 [Example 237, methyl 3-{4-[(4-{[(4-formyl-1-phenyl-1H-pyrazol-3-yl)oxy]methyl}phenoxy)methyl]-5-methyl-1,3-oxazol-2-yl}benzoate] |
| 149 to 150 | COc1cc(COc2nn(-c3ccccc3)cc2C=O)ccc1OCc1nc(N2CCOCC2)sc1C [Example 238, 3-({3-methoxy-4-[(5-methyl-2-morpholin-4-yl-1,3-thiazol-4-yl)methoxy]benzyl}oxy)-1-phenyl-1H-pyrazole-4-carbaldehyde] |
| 154 to 155 | CCc1nc(/C=C/c2cn(-c3ccccc3)nc2OCc2ccc(OCc3nc(-c4ccc(C(=O)O)o4)oc3C)c(OC)c2)cs1 [Example 242, 5-[4-({4-[({4-[(E)-2-(2-ethyl-1,3-thiazol-4-yl)ethenyl]-1-phenyl-1H-pyrazol-3-yl}oxy)methyl]-2-methoxyphenoxy}methyl)-5-methyl-1,3-oxazol-2-yl]-2-furancarboxylic acid] |
| 143 to 145 | CCOC(=O)c1ccc(-c2nc(COc3ccc(COc4nn(-c5ccccc5)cc4C=O)cc3OC)c(C)o2)o1 [Example 243, ethyl 5-{4-[(4-{[(4-formyl-1-phenyl-1H-pyrazol-3-yl)oxy]methyl}-2-methoxyphenoxy)methyl]-5-methyl-1,3-oxazol-2-yl}-2-furancarboxylate] |
| 150 to 151 | CCOC(=O)c1ccc(-c2nc(COc3ccc(COc4nn(-c5ccccc5)cc4/C=C/c4csc(CC)n4)cc3OC)c(C)o2)o1 [Example 244 (E form), ethyl 5-[4-({4-[({4-[(E)-2-(2-ethyl-1,3-thiazol-4-yl)ethenyl]-1-phenyl-1H-pyrazol-3-yl}oxy)methyl]-2-methoxyphenoxy}methyl)-5-methyl-1,3-oxazol-2-yl]-2-furancarboxylate] |
| 133 to 135 | CCOC(=O)c1ccc(-c2nc(COc3ccc(COc4nn(-c5ccccc5)cc4/C=C\c4csc(CC)n4)cc3OC)c(C)o2)o1 [Example 244 (Z form), ethyl 5-[4-({4-[({4-[(Z)-2-(2-ethyl-1,3-thiazol-4-yl)ethenyl]-1-phenyl-1H-pyrazol-3-yl}oxy)methyl]-2-methoxyphenoxy}methyl)-5-methyl-1,3-oxazol-2-yl]-2-furancarboxylate] |
| 234 to 235 | COc1cc(C(=O)Nc2nn(-c3ccccc3)cc2C=O)ccc1OCc1nc(-c2ccccc2)oc1C [Example 245, N-(4-formyl-1-phenyl-1H-pyrazol-3-yl)-3-methoxy-4-[(5-methyl-2-phenyl-1,3-oxazol-4-yl)methoxy]benzamide] |
| 157 to 158 | CCOC(=O)Cc1ccc(-c2nc(COc3ccc(COc4nn(-c5ccccc5)cc4C=O)cc3OC)c(C)o2)cc1 [Example 246, ethyl (4-{4-[(4-{[(4-formyl-1-phenyl-1H-pyrazol-3-yl)oxy]methyl}-2-methoxyphenoxy)methyl]-5-methyl-1,3-oxazol-2-yl}phenyl)acetate] |
| 145 to 146 | CCOC(=O)Cc1cccc(-c2nc(COc3ccc(COc4nn(-c5ccccc5)cc4C=O)cc3OC)c(C)o2)c1 [Example 253, ethyl (3-{4-[(4-{[(4-formyl-1-phenyl-1H-pyrazol-3-yl)oxy]methyl}-2-methoxyphenoxy)methyl]-5-methyl-1,3-oxazol-2-yl}phenyl)acetate] |
| 136 to 137 | COC(=O)c1cc(-c2nc(COc3ccc(COc4nn(-c5ccccc5)cc4C=O)cc3OC)c(C)o2)ccc1OS(C)(=O)=O [Example 255, methyl 5-{4-[(4-{[(4-formyl-1-phenyl-1H-pyrazol-3-yl)oxy]methyl}-2-methoxyphenoxy)methyl]-5-methyl-1,3-oxazol-2-yl}-2-(methanesulfonyloxy)benzoate] |
